Measurements from PubChem BioAssay (NCI).
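How tested: cells in 96-well plates exposed to compound for 48 hours at five concentrations. Here, GI50 denotes the concentration required for 50% inhibition of growth. At the TGI there is no net growth.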 Where a SMILES comes first, the peptide text is derived from it. The star is where a group is joined. Palmitoyl = CCCCCCCCCCCCCCCC(=O)*

Legend:
Assay in all cases: NCI-60 cell line screen, 48 h
HCT-15 colon = tested on: HCT-15 colon
M14 melanoma = tested on: M14 melanoma
MDA-MB-435 = tested on: MDA-MB-435
NCI-H522 lung = tested on: NCI-H522 lung
RPMI-8226 leukemia = tested on: RPMI-8226 leukemia
U251 CNS = tested on: U251 CNS
UACC-62 melanoma = tested on: UACC-62 melanoma
BT-549 breast = tested on: BT-549 breast
SK-MEL-28 melanoma = tested on: SK-MEL-28 melanoma
TK-10 renal = tested on: TK-10 renal

Compound	TGI (HCT-15 colon) [µM]	TGI (M14 melanoma) [µM]	TGI (MDA-MB-435) [µM]	TGI (NCI-H522 lung) [µM]	TGI (RPMI-8226 leukemia) [µM]	TGI (U251 CNS) [µM]	TGI (UACC-62 melanoma) [µM]	TGI (BT-549 breast) [µM]	TGI (SK-MEL-28 melanoma) [µM]	TGI (TK-10 renal) [µM]	GI50 (HCT-15 colon) [µM]	GI50 (MDA-MB-435) [µM]	GI50 (NCI-H522 lung) [µM]	GI50 (RPMI-8226 leukemia) [µM]	GI50 (SK-MEL-28 melanoma) [µM]	GI50 (UACC-62 melanoma) [µM]	GI50 (BT-549 breast) [µM]	GI50 (U251 CNS) [µM]	GI50 (M14 melanoma) [µM]	GI50 (TK-10 renal) [µM]
CC1=C(O)C2=C(C(=O)C1=O)[C@@H](C)CC[C@@H]2[C@@H](C)C/C=C/C(C)(C)O	> 100	> 100	> 100	58.8	56.3	> 100	> 100	–	–	–	–	–	–	–	–	–	–	–	–	–
c1cnc2c(c1)ccc1cccnc12	> 100	> 26.9	> 100	> 100	7.89	> 100	> 100	> 100	> 100	> 92	–	–	–	–	–	–	–	–	–	–
c1ccc(-c2nc(N3CCNCC3)c3oc(-c4ccccc4)nc3n2)cc1	3.51	–	3.12	4.51	5.16	–	3.11	–	3.16	–	1.8	1.65	1.99	2.03	1.73	1.72	–	–	–	–
Cn1c(-c2ccccc2)cc(-c2cccs2)c1-c1cccs1	> 100	–	–	> 100	> 100	> 100	> 100	–	> 100	–	–	–	–	–	–	–	–	–	–	–
CCN1CCC(O)(/C=C/c2ccccc2C)C(C(=O)/C=C/c2ccccc2C)C1 (stereo not drawn)	3.8	4.45	7.04	–	–	7.25	10.7	6.44	6.71	10.1	–	–	–	–	–	–	–	–	–	–
COc1ccc(Oc2cccc(C3C4C(=O)N(c5ccc(C)c(Cl)c5)C(=O)C4ON3C(C(N)=O)c3ccccc3)c2)cc1 (stereo not drawn)	25.9	> 50	> 50	32.6	–	> 50	34.9	–	> 50	> 50	–	–	–	–	–	–	–	–	–	–
CC12C=CC(=O)C=C1CCC1C3CCC(O)(C(=O)CO)C3(C)CC(O)C12F (stereo not drawn)	> 100	> 100	> 100	> 100	> 100	> 100	> 100	> 100	> 100	> 100	–	–	–	–	–	–	–	–	–	–
COC(=O)c1c(C)n([O-])c2cc(Cl)c(Cl)cc2[n+]1=O	37.9	76.6	62.8	25.4	19.3	> 100	40.3	> 100	92.1	61.5	–	–	–	–	–	–	–	–	–	–
CCOC(=O)c1c(C)n(-c2ccc(Cl)cc2)c2c1cc(O)c1[nH]c3c(c12)CCCC3	> 100	> 100	> 100	60.4	> 100	> 100	> 100	> 100	> 100	> 100	–	–	–	–	–	–	–	–	–	–
CCCC1CCC(=C2C(=O)CCC2=O)O1 (stereo not drawn)	> 100	> 100	> 100	> 100	> 100	> 100	> 100	> 100	> 100	> 100	–	–	–	–	–	–	–	–	–	–
CN1C(c2ccccc2)CC(=O)C(N)C1c1ccccc1 (stereo not drawn)	> 63.1	> 69.2	–	33.7	44.1	49.2	81.2	–	> 31.6	> 100	–	–	–	–	–	–	–	–	–	–
Nc1nc(O)c2ncn([C@H]3CC[C@@H](CO)O3)c2n1	> 100	> 100	> 100	–	> 100	> 100	> 100	> 100	> 100	> 100	–	–	–	–	–	–	–	–	–	–
Cc1ccc(-c2nc(N/N=C/C=C/c3ccccc3)c3ccccc3n2)cc1	> 100	> 100	> 100	> 100	> 100	> 100	48.1	52.2	> 100	38.7	–	–	–	–	–	–	–	–	–	–
OCCN(CCO)c1ncnc2nc[nH]c12	> 100	> 100	> 100	> 100	> 100	> 100	> 100	> 100	> 100	> 100	–	–	–	–	–	–	–	–	–	–
O=C(/C=C/c1ccc(Oc2cc(C(=O)/C=C/c3ccc(O)cc3)c(O)cc2O)cc1)c1ccc(O)cc1O	19.4	24.1	17.6	19.1	8.09	20.7	13	39.3	7.07	11.6	–	–	–	–	–	–	–	–	–	–
COC(=O)C1=C(OC(=O)/C(=C/c2ccc(Cl)cc2)c2ccc(Cl)cc2)C(C(=O)OC)[C@]2(O)[C@@H](C(=O)OC)[C@H]1C[C@@H](c1ccccc1)[C@@H]2C(=O)OC (stereo partly drawn)	> 100	> 100	> 100	> 100	–	> 100	> 100	> 100	> 100	> 100	–	–	–	–	–	–	–	–	–	–
C/C(=N/N=C(\[O-])c1ccncc1)C(F)(F)F.C/C(=N\N=C(/[O-])c1ccncc1)C(F)(F)F.[Ni+2]	> 1	–	–	–	–	–	–	> 1	0.005	–	> 1	–	–	–	0.00108	–	> 1	> 1	–	–
CCCCCCCCCCCCCCCC(=O)N1CCCC1C(=O)NCC(=O)NC(Cc1ccccc1)C(=O)NC(C)C(=O)NC(CO)C(=O)NC(Cc1ccc(O)cc1)C(=O)NC(CCCCN)C(=O)NC(CC(C)C)C(=O)NC(CCCN=C(N)N)C(=O)N1CCCC1C(=O)NCC(N)=O (stereo not drawn) (Palmitoyl-PGFASYKLRPG-NH2; configuration not given here)	–	35.3	54.5	46.9	16.4	–	–	45.3	48.8	41.5	–	14	20.2	4.36	22.1	–	21.9	–	16.8	18.4
COc1cc(C(C)O)c[n+](Cc2ccccc2)c1 (stereo not drawn)	> 100	> 100	–	> 100	> 100	> 100	> 100	–	> 100	> 100	–	–	–	–	–	–	–	–	–	–
O=c1c2cc(S(=O)(=O)O)ccc2nc(COc2ccc(Oc3ccc(Cl)cc3Cl)cc2)n1-c1ccc(Oc2ccc(Cl)cc2)cc1Cl	43.8	39.9	39.6	47.8	65.4	30.1	34.7	34.3	–	58.8	–	–	–	–	–	–	–	–	–	–
C[N+](C)(C)c1ncnc2c1ncn2C1CC(O)C(CO)O1 (stereo not drawn)	> 100	> 100	> 100	> 100	> 100	> 100	> 100	> 100	> 100	> 100	–	–	–	–	–	–	–	–	–	–
Nc1[nH]c(=O)nc2c1cnn2C1CCCCO1 (stereo not drawn)	> 100	> 100	–	–	> 100	> 100	–	–	> 100	> 100	–	–	–	–	–	–	–	–	–	–
CC(C)C(C(=O)O)N1C(=O)c2ccccc2C1=O (stereo not drawn)	> 100	> 100	> 100	> 100	> 100	> 100	> 100	> 100	> 100	> 100	–	–	–	–	–	–	–	–	–	–
COC(=O)/C=C(\CC(=O)OC)n1nnnc1[C@@H]1C[C@H](COC(c2ccccc2)(c2ccccc2)c2ccccc2)[C@H]2OC(C)(C)O[C@H]21	–	> 100	> 100	> 100	> 100	> 100	–	–	> 100	> 100	–	–	–	–	–	–	–	–	–	–
